Data published in PubChem BioAssay (NCI).
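Cells were grown in 96-well plates and exposed to each compound for 48 hours at five concentrations; endpoints were interpolated linearly between bracketing concentrations, or set to the highest concentration if not reached. GI50: concentration for 50% inhibition of growth. TGI denotes the concentration required for complete inhibition of growth.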

Columns and labels:
Experiment in all cases: inhibition of tumour cell growth, NCI panel, 48 h
A549 NSCLC = tested on: A549 NSCLC
HCT-116 colon = tested on: HCT-116 colon
HL-60(TB) leukemia = tested on: HL-60(TB) leukemia
HOP-62 NSCLC = tested on: HOP-62 NSCLC
KM12 colon = tested on: KM12 colon
NCI/ADR-RES ovarian = tested on: NCI/ADR-RES ovarian
OVCAR-5 ovarian = tested on: OVCAR-5 ovarian
SF-295 CNS = tested on: SF-295 CNS
SN12C renal = tested on: SN12C renal
U251 CNS = tested on: U251 CNS
UO-31 renal = tested on: UO-31 renal

SMILES | TGI (A549 NSCLC) [µM] | TGI (HCT-116 colon) [µM] | TGI (HL-60(TB) leukemia) [µM] | TGI (HOP-62 NSCLC) [µM] | TGI (KM12 colon) [µM] | TGI (NCI/ADR-RES ovarian) [µM] | TGI (OVCAR-5 ovarian) [µM] | TGI (SF-295 CNS) [µM] | TGI (SN12C renal) [µM] | TGI (U251 CNS) [µM] | TGI (UO-31 renal) [µM] | GI50 (HL-60(TB) leukemia) [µM] | GI50 (A549 NSCLC) [µM] | GI50 (HOP-62 NSCLC) [µM] | GI50 (KM12 colon) [µM] | GI50 (NCI/ADR-RES ovarian) [µM] | GI50 (OVCAR-5 ovarian) [µM] | GI50 (U251 CNS) [µM] | GI50 (UO-31 renal) [µM] | GI50 (SF-295 CNS) [µM]
COc1ccc(C(=O)NC2=C(Cl)C(=O)c3ccccc3C2=O)cc1 | > 36.7 | 1.52 | > 100 | 60.8 | 12.2 | 9.05 | 11.4 | 13.8 | 9.46 | 8.38 | 8.75 | – | – | – | – | – | – | – | – | –
O=NN1C(c2ccccc2)C2CCCC(C2=O)C1c1ccccc1 (centres undefined) | > 100 | > 63.1 | 44.7 | 56 | 99.2 | > 89.6 | > 100 | > 84.2 | 69.9 | > 84.9 | > 76.2 | – | – | – | – | – | – | – | – | –
C[C@]12Cc3cnc(-c4ccccc4)nc3C[C@@H]1CC[C@@H]1[C@@H]2CC[C@@]2(C)[C@H]1CC[C@]2(C)O | 57.6 | 48.8 | > 100 | 41.6 | > 67.8 | 57 | 63.4 | 52.4 | 57.3 | 41.4 | 7.06 | – | – | – | – | – | – | – | – | –
COC(=O)c1c(C)[nH]c2c1C(=O)C(=O)c1nc(C)c(C)nc1-2 | > 100 | 18.2 | 29.2 | 22 | 37.1 | 78.1 | 27.6 | 18.3 | 12.8 | 18.4 | 35.7 | – | – | – | – | – | – | – | – | –
O=S(=O)(O)c1cc(S(=O)(=O)O)c2cc(N=Nc3c(O)ccc4ccccc34)ccc2c1 | > 100 | > 100 | > 100 | > 100 | > 100 | > 100 | > 100 | > 100 | > 100 | > 100 | > 100 | – | – | – | – | – | – | – | – | –
COc1ccc(NC(=S)NNC(=O)c2nsc3ccccc23)cc1 | > 100 | > 100 | 60.8 | > 100 | > 100 | – | > 100 | – | > 100 | > 100 | 69.1 | – | – | – | – | – | – | – | – | –
Nc1c(OCC(=O)O)ccc2cc(S(=O)(=O)O)ccc12 | > 100 | > 100 | > 100 | > 100 | > 100 | > 100 | – | > 100 | > 100 | > 100 | > 100 | – | – | – | – | – | – | – | – | –
O=C(Nn1c(-c2cccs2)nc2ccc(I)cc2c1=O)c1ccccc1 | 45.1 | > 100 | 99.7 | > 100 | 81.2 | > 100 | > 100 | 91.7 | > 100 | 73.1 | 93.3 | 33.7 | – | – | – | – | – | – | – | –
CN1CC(c2ccccc2)C(O)(C2(c3ccccc3)CN(C)CC(c3ccccc3)C2=O)C(c2ccccc2)C1 (centres undefined) | > 100 | > 100 | > 100 | > 100 | > 100 | > 100 | > 100 | > 100 | > 100 | > 100 | > 100 | – | – | – | – | – | – | – | – | –
Cc1cn(C2C=CC(COP(=O)(OCc3ccc([N+](=O)[O-])o3)N(C)CCCCCl)O2)c(=O)[nH]c1=O (centres undefined) | 22.8 | 20.8 | 32.3 | 30.9 | 24.1 | > 100 | 30.9 | 30 | 23.2 | 18.2 | 31.1 | – | – | – | – | – | – | – | – | –
CC[C@H](C)C1=C(OC(C)=O)[N@+]2([O-])Oc3ccc(-c4c(O)c(O)c(-c5ccc(OC(C)=O)cc5)c(OC(C)=O)c4OC(C)=O)cc3O[C@]2([C@@H](C)CC)C(=O)N1O | > 50 | 19.5 | > 50 | > 50 | > 50 | > 50 | > 50 | > 50 | > 50 | > 50 | > 50 | – | – | – | – | – | – | – | – | –
O=C(O)CCO/N=C1/C(c2c(O)[nH]c3ccccc23)=Nc2ccccc21 | > 100 | 34.8 | 62.4 | > 100 | 38.9 | > 100 | > 100 | > 100 | > 100 | > 100 | 38.3 | – | – | – | – | – | – | – | – | –
CC[C@@]1(OC(=O)CN(C)C)C(=O)OCc2c1cc1n(c2=O)Cc2cc3c(N)cccc3nc2-1 | 1.37 | – | 10.7 | 0.432 | 0.342 | 2.41 | > 100 | – | – | 0.249 | 0.057 | 0.0226 | 0.0575 | 0.0119 | 0.102 | 0.034 | 0.317 | 0.0217 | 0.0166 | –
OC(c1ccc(Cl)cc1)(c1ccc(Cl)cc1)c1cncnc1 | – | 28.6 | – | 35.3 | 31.9 | 74.8 | 36.6 | 37.2 | 80.3 | 37.8 | 31.3 | – | – | – | – | – | – | – | – | –
Clc1cc2ccccc2c2ccccc12 | > 100 | > 100 | > 100 | > 100 | > 100 | > 100 | > 100 | > 100 | > 100 | > 100 | > 100 | – | – | – | – | – | – | – | – | –
O=C(O)C1OC1C(=O)O (centres undefined) | > 100 | > 100 | – | > 100 | > 100 | > 100 | > 100 | > 100 | > 100 | > 100 | > 100 | – | – | – | – | – | – | – | – | –
CCc1c2cc(OC)c(OC)cc2cc2c3cc(OC)c(OC)cc3cc[n+]12 (tested in a mixture with another compound) | > 96.6 | > 53.8 | > 96.8 | > 95.4 | > 61.5 | > 61.1 | > 100 | > 86.7 | > 79.9 | 57.2 | > 71.6 | – | – | – | – | – | – | – | – | –
CO/N=C(/C)c1cccc(Nc2nc3ccc(Cl)cc3c3[nH]c4ccccc4c23)c1 | 30.2 | 14.7 | 32 | 24.4 | 14.6 | 33 | 23.7 | 15.3 | 25.9 | 29.1 | 21.7 | – | – | – | – | – | – | – | – | –
COc1cc2c(cc1OC)C1c3ccccc3CCN1CCC2 (centres undefined) | > 100 | > 100 | > 100 | > 100 | > 100 | > 100 | > 100 | > 100 | > 100 | > 100 | > 100 | – | – | – | – | – | – | – | – | –
CC(C)=Cc1cc(C)c2c3c(c(O)c(O)c(C)c13)C(C)=CC2=O | 56 | 37.7 | 67 | 47.2 | 45.8 | 81.5 | 73.3 | 48.6 | > 100 | 92 | > 100 | – | – | – | – | – | – | – | – | –
CN(C)CCCNc1ccc2nnn3c4ccc(OC(=O)c5ccccc5)cc4c(=O)c1c23 | 23.7 | 24.7 | – | 20.9 | 23.3 | 37.9 | 30.4 | 24.3 | 25.4 | 29 | 20.8 | – | – | – | – | – | – | – | – | –
Clc1ccc(C2CC(c3cccc(Nc4ccncc4)c3)=NN2c2ccc(Cl)cc2)cc1 (centres undefined) | – | – | – | – | – | – | 2.88 | 2.96 | – | – | 2.74 | – | – | – | – | – | 1.54 | – | 1.42 | 1.58
c1ccc2c(c1)OCCc1cn[nH]c1-2 | > 100 | > 100 | > 100 | > 100 | > 100 | > 100 | > 100 | > 100 | > 100 | > 100 | > 100 | – | – | – | – | – | – | – | – | –
O=C1C[C@H](COCc2ccccc2)NC(=O)C[C@H](COCc2ccccc2)NC(=O)C[C@H](COCc2ccccc2)N1 | > 100 | > 100 | > 100 | > 100 | > 100 | > 100 | > 100 | 89.2 | > 100 | > 100 | > 100 | – | – | – | – | – | – | – | – | –
COc1ccc(C(=O)O[C@H]2CC[C@@]3(C)[C@@H]4CC[C@H]5[C@]6(O)C[C@H](O)[C@@]7(O)[C@@H](CN8C[C@@H](C)CC[C@H]8[C@@]7(C)O)[C@]6(O)C[C@@]53OC24O)cc1OC | > 100 | > 100 | – | > 100 | > 100 | > 100 | > 100 | > 100 | > 100 | > 100 | > 100 | – | – | – | – | – | – | – | – | –
COc1ccc(/C=C2\C[C@H]3[C@@H]4CC=C5C[C@@H](OC(C)=O)CC[C@]5(C)[C@H]4CC[C@]3(C)\C2=N\O)cc1OC | > 100 | > 100 | > 100 | > 100 | > 100 | > 100 | > 100 | > 100 | > 100 | – | 91.6 | – | – | – | – | – | – | – | – | –
O=C1CCCC/C1=C1/SC(=Nc2ccccc2)C(=Nc2ccccc2)N1c1ccccc1 | – | > 100 | > 100 | > 100 | > 100 | > 100 | > 100 | > 100 | > 100 | > 100 | > 100 | – | – | – | – | – | – | – | – | –
O=C(O)C(O)(c1ccc(-c2ccccc2)cc1)c1ccc(-c2ccccc2)cc1 | > 100 | 62.2 | 49.7 | 46.3 | 40.9 | 61.2 | 77.8 | 68.8 | 60.7 | 32.7 | > 100 | – | – | – | – | – | – | – | – | –
